Source: patent US11485731B2, “Compounds and methods useful in the treatment of a PRMT5-mediated disorder” (ARGONAUT THERAPEUTICS LIMITED, priority 2017, dated 2022)

The molecules below were run against human PRMT5/MEP50 (Homo sapiens (Human), UniProt O14744) (assay: PRMT5 chemiluminescent assay). Conditions: human PRMT5/MEP50 expressed in HEK293 cells; biotinylated histone peptides; Histone H4 monomethyl R3 antibody; chemiluminescent readout.
Assay type: biochemical
Description: A PRMT5 chemiluminescent assay was used to measure the IC50 activity of PRMT5 of the compounds of Examples 1A to 7 above. Biotinylated histone peptides were synthesized and attached to 384-well plates. Compound serial dilutions were performed and added to the assay plate. Histone H4 monomethyl R3 antibody was obtained from Abcam. A master mix for each well was prepared and human PRMT5/MEP50 (expressed in HEK293 cells) diluted in assay buffer to a concentration of 5 ng/μL. The reaction was incubated and slowly rotated for 60 minutes at the point of PRMT5/MEP50 addition. The supernatant from the wells was removed and blocking buffer was added to each well and rotated for 10 minutes. The primary antibody was diluted and added to every well for 60 minutes, before it was removed and the wells washed. The horse raddish peroxidase (HRP)-coupled secondary antibody was diluted and added to each well with an incubation time of 30 minutes. The HRP chemiluminescent substrate was added to every well. The plate was read on a Flourstar Omega BMG Labtech instrument (Ortenberg, Germany) and the analysis of IC50 was performed using the Flourstar Omega BMG Labtech software.

Sequence of human PRMT5/MEP50 (O14744 whole entry): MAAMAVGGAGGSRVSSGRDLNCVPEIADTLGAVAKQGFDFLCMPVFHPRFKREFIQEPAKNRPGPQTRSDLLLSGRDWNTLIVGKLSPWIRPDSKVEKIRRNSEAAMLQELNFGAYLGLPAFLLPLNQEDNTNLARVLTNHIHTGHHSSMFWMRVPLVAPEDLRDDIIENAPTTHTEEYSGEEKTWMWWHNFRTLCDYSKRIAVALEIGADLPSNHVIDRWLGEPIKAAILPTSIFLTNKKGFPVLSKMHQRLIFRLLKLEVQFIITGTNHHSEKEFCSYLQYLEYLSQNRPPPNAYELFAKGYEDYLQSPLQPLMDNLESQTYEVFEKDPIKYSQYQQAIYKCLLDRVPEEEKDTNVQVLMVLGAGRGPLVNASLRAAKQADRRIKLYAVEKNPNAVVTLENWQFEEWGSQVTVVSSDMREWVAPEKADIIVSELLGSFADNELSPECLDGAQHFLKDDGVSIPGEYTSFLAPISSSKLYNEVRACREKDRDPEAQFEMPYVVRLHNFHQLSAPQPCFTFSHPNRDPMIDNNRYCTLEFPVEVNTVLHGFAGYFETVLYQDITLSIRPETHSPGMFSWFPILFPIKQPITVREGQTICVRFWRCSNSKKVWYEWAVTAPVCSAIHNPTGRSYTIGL
Sequence of human PRMT5/MEP50 (Q9BQA1 whole entry partner): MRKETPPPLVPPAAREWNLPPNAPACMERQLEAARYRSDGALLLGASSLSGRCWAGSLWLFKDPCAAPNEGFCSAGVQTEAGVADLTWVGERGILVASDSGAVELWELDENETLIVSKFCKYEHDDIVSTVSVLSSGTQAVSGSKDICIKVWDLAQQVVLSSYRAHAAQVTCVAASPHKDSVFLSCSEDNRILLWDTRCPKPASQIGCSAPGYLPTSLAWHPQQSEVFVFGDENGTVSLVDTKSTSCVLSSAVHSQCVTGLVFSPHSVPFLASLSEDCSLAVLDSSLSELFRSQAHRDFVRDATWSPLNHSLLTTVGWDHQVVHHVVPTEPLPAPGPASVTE

| SMILES | IC50 [nM] |
| --- | --- |
| O=C(NC[C@H](O)CN1CCc2ccccc2C1)N1CCCN(C(=O)c2ccccc2)CC1 [Example 1AR, (S)-4-benzoyl-N-(3-(3,4-dihydroisoquinolin-2(1H)-yl)-2-hydroxypropyl)-1,4-diazepane-1-carboxamide] | 658 |
| COC(=O)N1CCCN(C(=O)NC[C@H](O)CN2CCc3ccccc3C2)CC1 [Example 1AS, Methyl (S)-4-((3-(3,4-dihydroisoquinolin-2(1H)-yl)-2-hydroxypropyl)carbamoyl)-1,4-diazepane-1-carboxylate] | 112 |
| O=C(NC[C@H](O)CN1CCc2ccccc2C1)N1CCCSCC1 [Example 1AT, (S)-N-(3-(3,4-dihydroisoquinolin-2(1H)-yl)-2-hydroxypropyl)-1,4-thiazepane-4-carboxamide] | 691 |
| O=C(NC[C@H](O)CN1CCc2ccccc2C1)N1CCC[S+]([O-])CC1 (stereo partly drawn) [Example 1AU, N-((S)-3-(3,4-dihydroisoquinolin-2(1H)-yl)-2-hydroxypropyl)-1,4-thiazepane-4-carboxamide 1-oxide] | 31200 |
| O=C(NC[C@H](O)CN1CCc2ccccc2C1)N1CCCS(=O)(=O)CC1 [Example 1AV, (S)-N-(3-(3,4-dihydroisoquinolin-2(1H)-yl)-2-hydroxypropyl)-1,4-thiazepane-4-carboxamide 1,1-dioxide] | 3140 |
| O=C(NC[C@H](O)CN1CCc2ccccc2C1)N1CCCN(C(=O)c2cccs2)CC1 [Example 1AW, (S)-N-(3-(3,4-dihydroisoquinolin-2(1H)-yl)-2-hydroxypropyl)-4-(thiophene-2-carbonyl)-1,4-diazepane-1-carboxamide] | 7020 |
| CN(C)C(=O)C1CCN(C(=O)NC[C@H](O)CN2CCc3ccccc3C2)CC1 [Example 1AX, (S)-N^1-(3-(3,4-dihydroisoquinolin-2(1H)-yl)-2-hydroxypropyl)-N^4,N^4-dimethylpiperidine-1,4-dicarboxamide] | 588 |
| O=C(NC[C@H](O)CN1CCc2ccccc2C1)N1CCC(C(=O)N2CCOCC2)CC1 [Example 1AY, (S)-N-(3-(3,4-dihydroisoquinolin-2(1H)-yl)-2-hydroxypropyl)-4-(morpholine-4-carbonyl)piperidine-1-carboxamide] | 311 |
| O=C(NC[C@H](O)CN1CCc2ccccc2C1)N1CCC(C(=O)N2C3CCC2COC3)CC1 [Example 1AZ, 4-(3-oxa-8-azabicyclo[3.2.1]octane-8-carbonyl)-N-((S)-3-(3,4-dihydroisoquinolin-2(1H)-yl)-2-hydroxypropyl)piperidine-1-carboxamide] | 159 |
| O=C(NCC(O)CN1CCc2ccsc2C1)N1CCC(c2ccccc2)C1 (centres unmarked) [Example 1Af, N-(3-(4,7-dihydrothieno[2,3-c]pyridin-6(5H)-yl)-2-hydroxypropyl)-3-phenylpyrrolidine-1-carboxamide] | 749 |
| CC(=O)N1CCN(C(=O)NCC(O)CN2CCc3ccccc3C2)CC1 (centres unmarked) [Example 1B, 4-acetyl-N-[2-hydroxy-3-(1,2,3,4-tetrahydroisoquinolin-2-yl)propyl]piperazine-1-carboxamide] | 9910 |
| O=C(NC[C@H](O)CN1CCc2ccccc2C1)N1CCC(c2ccccn2)C1 (stereo partly drawn) [Example 1BA, N-((S)-3-(3,4-dihydroisoquinolin-2(1H)-yl)-2-hydroxypropyl)-3-(pyridin-2-yl)pyrrolidine-1-carboxamide] | 97 |
| CC(=O)N1CCCN(C(=O)NC[C@@H](O)CN2CCc3ccccc3C2)CC1 [Example 1BB, (R)-4-acetyl-N-(3-(3,4-dihydroisoquinolin-2(1H)-yl)-2-hydroxypropyl)-1,4-diazepane-1-carboxamide] | 51800 |
| COC(=O)N1CCCN(C(=O)NC[C@@H](O)CN2CCc3ccccc3C2)CC1 [Example 1BC, Methyl (R)-4-((3-(3,4-dihydroisoquinolin-2(1H)-yl)-2-hydroxypropyl)carbamoyl)-1,4-diazepane-1-carboxylate] | 33100 |
| CS(=O)(=O)N1CCCN(C(=O)NC[C@@H](O)CN2CCc3ccccc3C2)CC1 [Example 1BD, (R)-N-(3-(3,4-dihydroisoquinolin-2(1H)-yl)-2-hydroxypropyl)-4-(methylsulfonyl)-1,4-diazepane-1-carboxamide] | 58200 |
| O=C(NC[C@@H](O)CN1CCc2ccccc2C1)N1CCC(C(=O)N2C3CCC2COC3)CC1 [Example 1BE, 4-(3-oxa-8-azabicyclo[3.2.1]octane-8-carbonyl)-N-((R)-3-(3,4-dihydroisoquinolin-2(1H)-yl)-2-hydroxypropyl)piperidine-1-carboxamide] | 3080 |
| O=C(NC[C@H](O)CN1CCc2ccccc2C1)N1CCC(F)(F)CC1 [Example 1BF, (S)-N-(3-(3,4-dihydroisoquinolin-2(1H)-yl)-2-hydroxypropyl)-4,4-difluoropiperidine-1-carboxamide] | 5600 |
| CC1(O)CCN(C(=O)NC[C@H](O)CN2CCc3ccccc3C2)CC1 [Example 1BG, (S)-N-(3-(3,4-dihydroisoquinolin-2(1H)-yl)-2-hydroxypropyl)-4-hydroxy-4-methylpiperidine-1-carboxamide] | 3940 |
| O=C(NC[C@H](O)CN1CCc2ccccc2C1)N1CCCC(O)(c2ccccc2)C1 (stereo partly drawn) [Example 1BH, N-((S)-3-(3,4-dihydroisoquinolin-2(1H)-yl)-2-hydroxypropyl)-3-hydroxy-3-phenylpiperidine-1-carboxamide] | 167 |
| O=C(NC[C@H](O)CN1CCc2ccccc2C1)N1CCC(O)(c2ccccc2)C1 (stereo partly drawn) [Example 1BI, N-((S)-3-(3,4-dihydroisoquinolin-2(1H)-yl)-2-hydroxypropyl)-3-hydroxy-3-phenylpyrrolidine-1-carboxamide] | 399 |
| O=C(NC[C@H](O)CN1CCc2ccccc2C1)N1CCSC(c2ccccc2)C1 (stereo partly drawn) [Example 1BJ, N-((S)-3-(3,4-dihydroisoquinolin-2(1H)-yl)-2-hydroxypropyl)-2-phenylthiomorpholine-4-carboxamide] | 108 |
| O=C(NC[C@H](O)CN1CCc2ccccc2C1)N1CCCC(n2cccn2)C1 (stereo partly drawn) [Example 1BK, N-((S)-3-(3,4-dihydroisoquinolin-2(1H)-yl)-2-hydroxypropyl)-3-(1H-pyrazol-1-yl)piperidine-1-carboxamide] | 396 |
| O=C(NC[C@H](O)CN1CCc2ccccc2C1)N1CCCC(n2ccnc2)C1 (stereo partly drawn) [Example 1BL, N-((S)-3-(3,4-dihydroisoquinolin-2(1H)-yl)-2-hydroxypropyl)-3-(1H-imidazol-1-yl)piperidine-1-carboxamide] | 4440 |
| O=C(NC[C@H](O)CN1CCc2ccccc2C1)N1CCCN(S(=O)(=O)c2ccccc2)CC1 [Example 1BM, (S)-N-(3-(3,4-dihydroisoquinolin-2(1H)-yl)-2-hydroxypropyl)-4-(phenylsulfonyl)-1,4-diazepane-1-carboxamide] | 1280 |
| O=C(NC[C@H](O)CN1CCc2ccccc2C1)N1CCCSC(c2ccccc2)C1 (stereo partly drawn) [Example 1BN, N-((S)-3-(3,4-dihydroisoquinolin-2(1H)-yl)-2-hydroxypropyl)-2-phenyl-1,4-thiazepane-4-carboxamide] | 104 |
| O=C(NC[C@H](O)CN1CCc2ccccc2C1)N1CCCS(=O)(=O)C(c2ccccc2)C1 (stereo partly drawn) [Example 1BO, N-((S)-3-(3,4-dihydroisoquinolin-2(1H)-yl)-2-hydroxypropyl)-2-phenyl-1,4-thiazepane-4-carboxamide 1,1-dioxide] | 1820 |
